From ChEMBL document CHEMBL1201862, “PubChem BioAssay data set” (2004)
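1) Cells in 96-well plates. 2) Compound, 48 h, 5 concentrations. 3) Linear interpolation between surrounding doses. 4) Unreached endpoint = highest concentration. GI50 marks 50% less growth.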 The source made the active and inactive calls. No stated cut-off is given here; in the data, active = GI50 up to about 1.1 µM and inactive = higher.

How the values were obtained:
Assay in all cases: NCI anticancer screen, dose series, 48 h
BT-549 = system: BT-549
M14 = system: M14
HCC 2998 = system: HCC 2998
SR = system: SR
TK-10 = system: TK-10
UACC-62 = system: UACC-62
SK-MEL-5 = system: SK-MEL-5
HOP-62 = system: HOP-62
MDA-MB-435 = system: MDA-MB-435
IGROV-1 = system: IGROV-1
MCF7 = system: MCF7
A498 = system: A498
PC-3 = system: PC-3
RXF 393 = system: RXF 393
MOLT-4 = system: MOLT-4
SF-268 = system: SF-268
HT-29 = system: HT-29
COLO 205 = system: COLO 205
LOX IMVI = system: LOX IMVI
EKVX = system: EKVX
SK-MEL-2 = system: SK-MEL-2
CAKI-1 = system: CAKI-1
SK-OV-3 = system: SK-OV-3
NCI-H522 = system: NCI-H522
ACHN = system: ACHN
SW-620 = system: SW-620
SF-295 = system: SF-295
A549 = system: A549
Hs-578T = system: Hs-578T
MDA-MB-231 = system: MDA-MB-231
Malme-3M = system: Malme-3M
HCT-116 = system: HCT-116
786-0 = system: 786-0
HL-60 = system: HL-60
OVCAR-4 = system: OVCAR-4
OVCAR-5 = system: OVCAR-5
SNB-75 = system: SNB-75
CCRF-CEM = system: CCRF-CEM
OVCAR-3 = system: OVCAR-3
UACC-257 = system: UACC-257
T47D = system: T47D
SK-MEL-28 = system: SK-MEL-28
SN12C = system: SN12C
OVCAR-8 = system: OVCAR-8
DU-145 = system: DU-145
SNB-19 = system: SNB-19
UO-31 = system: UO-31
K562 = system: K562
U-251 = system: U-251
NCI-H460 = system: NCI-H460
NCI-H226 = system: NCI-H226
NCI/ADR-RES = system: NCI/ADR-RES
MDA-N = system: MDA-N
KM12 = system: KM12
HCT-15 = system: HCT-15
RPMI-8226 = system: RPMI-8226
NCI-H23 = system: NCI-H23
HOP-92 = system: HOP-92
SF-539 = system: SF-539

In the case of Nc1nc(=O)c(/N=N/c2ccc([As](=O)(O)O)cc2)c(N)[nH]1, the GI50 (BT-549) is reported as > 100 µM (inactive), the GI50 (M14) is reported as > 100 µM (inactive) and the GI50 (HCC 2998) is reported as > 100 µM (inactive). The GI50 (SR) was > 100 µM (inactive), the GI50 (TK-10) was > 100 µM (inactive) and the GI50 (UACC-62) was > 100 µM (inactive). For the same molecule, the GI50 (SK-MEL-5) was > 100 µM (inactive), the GI50 (HOP-62) was > 100 µM (inactive) and the GI50 (MDA-MB-435) was > 100 µM (inactive). The GI50 (IGROV-1) was > 100 µM (inactive), the GI50 (MCF7) was > 100 µM (inactive) and the GI50 (A498) was > 100 µM (inactive). The GI50 (PC-3) was > 100 µM (inactive), the GI50 (RXF 393) was > 100 µM (inactive) and the GI50 (MOLT-4) was > 100 µM (inactive). The GI50 (SF-268) was > 100 µM (inactive), the GI50 (HT-29) was > 100 µM (inactive) and the GI50 (COLO 205) was > 100 µM (inactive). For the same molecule, the GI50 (LOX IMVI) was > 100 µM (inactive), the GI50 (EKVX) was > 100 µM (inactive) and the GI50 (SK-MEL-2) was > 100 µM (inactive). The GI50 (CAKI-1) was > 100 µM (inactive), the GI50 (SK-OV-3) was > 100 µM (inactive) and the GI50 (NCI-H522) was > 100 µM (inactive). The GI50 (ACHN) was > 100 µM (inactive), the GI50 (SW-620) was > 100 µM (inactive) and the GI50 (SF-295) was > 100 µM (inactive). The GI50 (A549) was > 100 µM (inactive), the GI50 (Hs-578T) was > 100 µM (inactive) and the GI50 (MDA-MB-231) was > 100 µM (inactive). For the same molecule, the GI50 (Malme-3M) was > 100 µM (inactive), the GI50 (HCT-116) was > 100 µM (inactive) and the GI50 (786-0) was > 100 µM (inactive). The GI50 (HL-60) was > 100 µM (inactive), the GI50 (OVCAR-4) was > 100 µM (inactive) and the GI50 (OVCAR-5) was > 100 µM (inactive). For the same molecule, the GI50 (SNB-75) was > 100 µM (inactive), the GI50 (CCRF-CEM) was > 100 µM (inactive) and the GI50 (OVCAR-3) was > 100 µM (inactive). For the same molecule, the GI50 (UACC-257) was > 100 µM (inactive), the GI50 (T47D) was > 100 µM (inactive) and the GI50 (SK-MEL-28) was > 100 µM (inactive). For the same molecule, the GI50 (SN12C) was > 100 µM (inactive), the GI50 (OVCAR-8) was > 100 µM (inactive) and the GI50 (DU-145) was > 100 µM (inactive). For the same molecule, the GI50 (SNB-19) was > 100 µM (inactive), the GI50 (UO-31) was > 100 µM (inactive) and the GI50 (K562) was > 100 µM (inactive). For the same molecule, the GI50 (U-251) was > 100 µM (inactive), the GI50 (NCI-H460) was > 100 µM (inactive) and the GI50 (NCI-H226) was > 100 µM (inactive). For the same molecule, the GI50 (NCI/ADR-RES) was > 100 µM (inactive), the GI50 (MDA-N) was > 100 µM (inactive) and the GI50 (KM12) was > 100 µM (inactive). For the same molecule, the GI50 (HCT-15) was greater than 100 µM, the GI50 (RPMI-8226) was > 100 µM (inactive) and the GI50 (NCI-H23) was > 100 µM (inactive).

Cc1c(C)c2c(c(N)c1C#N)C(=O)N(NC(=S)Nc1ccccc1)C2=O was tested, and the GI50 (BT-549) was > 100 µM (inactive), the GI50 (M14) was > 100 µM (inactive) and the GI50 (HCC 2998) was > 100 µM (inactive). The GI50 (SR) was 22.4 µM (inactive), the GI50 (TK-10) was > 100 µM (inactive) and the GI50 (UACC-62) was > 100 µM (inactive). For the same molecule, the GI50 (SK-MEL-5) was 90.4 µM (inactive), the GI50 (MDA-MB-435) was > 100 µM (inactive) and the GI50 (IGROV-1) was 56.5 µM (inactive). The GI50 (MCF7) was > 100 µM (inactive), the GI50 (PC-3) was > 100 µM (inactive) and the GI50 (RXF 393) was 46 µM (inactive). For the same molecule, the GI50 (MOLT-4) was 20.3 µM (inactive), the GI50 (SF-268) was 31.4 µM (inactive) and the GI50 (HT-29) was 60.1 µM (inactive). The GI50 (COLO 205) was 79.4 µM (inactive), the GI50 (EKVX) was > 100 µM (inactive) and the GI50 (SK-MEL-2) was > 100 µM (inactive). For the same molecule, the GI50 (CAKI-1) was 18.2 µM (inactive), the GI50 (SK-OV-3) was > 100 µM (inactive) and the GI50 (NCI-H522) was 52.7 µM (inactive). The GI50 (ACHN) was 50 µM (inactive), the GI50 (SW-620) was 57.5 µM (inactive) and the GI50 (SF-295) was 60.8 µM (inactive). For the same molecule, the GI50 (A549) was > 100 µM (inactive), the GI50 (Hs-578T) was 42.1 µM (inactive) and the GI50 (MDA-MB-231) was > 100 µM (inactive). For the same molecule, the GI50 (Malme-3M) was 72.9 µM (inactive), the GI50 (HCT-116) was 52.6 µM (inactive) and the GI50 (786-0) was 44.1 µM (inactive). For the same molecule, the GI50 (HL-60) was 86.9 µM (inactive), the GI50 (HOP-92) was > 100 µM (inactive) and the GI50 (OVCAR-4) was > 100 µM (inactive). For the same molecule, the GI50 (OVCAR-5) was > 100 µM (inactive), the GI50 (SF-539) was 49.8 µM (inactive) and the GI50 (SNB-75) was 39 µM (inactive). For the same molecule, the GI50 (CCRF-CEM) was 62.5 µM (inactive), the GI50 (OVCAR-3) was > 100 µM (inactive) and the GI50 (UACC-257) was > 100 µM (inactive). For the same molecule, the GI50 (T47D) was > 100 µM (inactive), the GI50 (SK-MEL-28) was > 100 µM (inactive) and the GI50 (SN12C) was 69.7 µM (inactive). The GI50 (OVCAR-8) was 45 µM (inactive), the GI50 (DU-145) was > 100 µM (inactive) and the GI50 (SNB-19) was 56.6 µM (inactive). For the same molecule, the GI50 (UO-31) was 44.4 µM (inactive), the GI50 (K562) was > 100 µM (inactive) and the GI50 (U-251) was > 100 µM (inactive). The GI50 (NCI-H460) was 61.2 µM (inactive), the GI50 (NCI-H226) was 42.8 µM (inactive) and the GI50 (NCI/ADR-RES) was 71.3 µM (inactive). The GI50 (MDA-N) was > 100 µM (inactive), the GI50 (KM12) was 91.4 µM (inactive) and the GI50 (HCT-15) was 67.8 µM. The GI50 (RPMI-8226) was 43.3 µM (inactive) and the GI50 (NCI-H23) was > 100 µM (inactive).
